Tests used:
[1] = tested on: primary murine HSCs; experiment: Lipid droplet accumulation assay (BODIPY staining); type: cell-based, mouse; settings: day 6, JQ1 500 nM
Procedure: Primary murine HSCs were seeded onto chamber slides (Nunc). […] Media was aspirated, cells were washed twice with PBS (Gibco) and fixed in 10% buffered formalin at room temperature for 15 minutes. Fixative was removed and cells were washed three times with PBS. […] Dye was removed and cells were washed three times with PBS, then mounted using Vectastain mounting medium (Vector Labs). Fluorescence was visualized through the GFP filter on a Leica DM5000B fluorescent microscope. Nuclear counterstaining was performed using DAPI (Vector).

[2] = tested on: primary HSCs; experiment: qRT-PCR gene expression in primary murine HSCs; type: cell-based, mouse; settings: JQ1 500 nM, RT-qPCR
[3] = tested on: Pancreatic cancer cell lines (AsPc1, MIAPaCa2, PancT and P53 2.1.1); experiment: Viability of pancreatic cancer cell lines in astromal or stromal hydrogels (Cell TiterGlo); type: cell-based; settings: 500 nM JQ1, 72 hours, astromal or stromal culture conditions
From the text: Pancreatic cancer cell lines (AsPc1, MIAPaCa2, PancT and P53 2.1.1) were embedded in HyStem®-C hydrogels (ESI-BIO) at a concentration of 5×10^5 cells/ml. For astromal hydrogels, Glycosil® and Extralink™ components were resuspended in degassed H2O per manufacturer's procotol, and Glycosil®+degassed H2O+Extralink™ were combined in a 1:1:1 ratio. For the stromal hydrogels, Glycosil®, Gelin-S® (denatured collagens), and Extralink™ components were resuspended in degassed H2O per manufacturer's procotol, and Glycosil®+Gelin-S®+Extralink™ were combined in a 1:1:1 ratio. Pancreatic cancer cells were resuspended in the hydrogels and seeded into 96-well plates, 100 μl/well (5×10^4 cells/well). Triplicate wells were seeded for each condition to be tested. After hydrogel polymerization was evident (30-45 minutes), DMEM+10% FBS was added to astromal wells and conditioned media from cancer-associated PSCs was added to stromal wells. Conditioned media was prepared by growing primary cancer-associated PSCs (grown out of human pancreatic tumors) to confluency, changing to fresh DMEM+10% FBS, then collecting the media after 48 hours and passing through a 0.45 um filter to clear debris. […] Viability assays were performed after 72 hours using the Cell TiterGlo reagent (Promega) according to the manufacturer's instructions, but with a 45 minute incubation to ensure efficient lysis in 3D cultures.

[4] = tested on: p53 2.1.1 cell line in FVB/n hosts; experiment: Orthotopic allograft of p53 2.1.1 pancreatic cancer cells; type: in vivo, mouse
Procedure: The p53 2.1.1 cell line, a luciferase-expressing cell line derived from autochthonous pancreatic cancer in pure FVB/n mice, was used for orthotopic transplantation into pancreata of immune-competent FVB/n hosts. Cells were resuspended in 50% DMEM+10% FBS, 50% Matrigel and 1,000 cells per mouse were injected into the body of the pancreas. One week after transplantation, transplanted mice were subject to bioluminescence imaging to measure luciferase activity and, thus, tumor burden. […] Mice were imaged again to measure bioluminescence signal (tumor burden) at experimental endpoint; pancreata were removed, weighed, and fixed or flash-frozen for further analysis.

[5] = tested on: BRD2, BRD3, BRD4 (BETs) occupancy on chromatin; type: cell-based, human; settings: LX-2 cells; 500 nM, 16 hr
Procedure: Cells were then harvested for ChIP assay. The experimental procedure for ChIP was as previously described.
The procedure was as previously described^5,31. Briefly, short DNA reads were demultiplexed using the Illumina CASAVA v1.8.2. […] Only tags that map uniquely to the genome were considered for further analysis. Subsequent peak calling and motif analysis were conducted using HOMER, a software suite for ChIP-Seq analysis. The methods for HOMER, which are described below, have been implemented and are freely available on the internet (biowhat.ucsd.edu/homer/). One tag from each unique position was considered to eliminate peaks resulting from clonal amplification of fragments during the ChIP-Seq protocol. Peaks were identified by searching for clusters of tags within a sliding 200 bp window, requiring adjacent clusters to be at least 1 kb away from each other. The threshold for the number of tags that determine a valid peak was selected for a false discovery rate of <0.01, as empirically determined by repeating the peak finding procedure using randomized tag positions. […] Peaks are annotated to gene products by identifying the nearest RefSeq transcriptional start site. Visualization of ChIP-Seq results was achieved by uploading custom tracks onto the UCSC genome browser.
BETs are chromatin regulators^7.

[6] = tested on: primary murine HSCs; experiment: Immunocytochemistry (Acta2) of HSC activation into myofibroblasts; type: cell-based, mouse; settings: day 6, JQ1 500 nM
Procedure: Primary murine HSCs were seeded onto chamber slides (Nunc). […] Media was aspirated, cells were washed twice with PBS (Gibco) and fixed in 10% buffered formalin at room temperature for 15 minutes. Fixative was removed and cells were washed three times with PBS. The slides were then blocked with 3% BSA and incubated with rabbit anti-ACTA2 antibody (at 1:100 dilution; Abcam) overnight at 4° C. After washing, the slides were incubated for 1 hour with Alexa Fluor546-labeled donkey anti-rabbit IgG antibody (at 1:200 dilution; Invitrogen). Finally, the slides were analyzed for fluorescence using an all-in-one type fluorescent microscope (BioZero BZ-9000; Keyence, Osaka, Japan). Nuclear counterstaining was performed using DAPI (Vector).

[7] = tested on: C57BL/6J mice; experiment: Serum alanine aminotransferase (ALT) assay in CCl4 model; type: in vivo, mouse; settings: preventive CCl4 model; JQ1 50 mg/kg IP
Procedure: The animals were terminated 72 hours after the final CCl4 injection and whole livers were collected for histological, cytological, biochemical and molecular analyses.
The ALT activity in mice serum was measured using a kit from Thermo Scientific (TR71121).

[8] = 75 mg/kg JQ1 i.p. daily for 14 days
[9] = 75 mg/kg JQ1 i.p. daily for 14 days vs vehicle

Cc1sc2c(c1C)C(c1ccc(Cl)cc1)=N[C@@H](CC(=O)OC(C)(C)C)c1nnc(C)n1-2 [JQ1, (S)-tert-butyl 2-(4-(4-chlorophenyl)-2,3,9-trimethyl-6H-thieno[3,2-f][1,2,4]triazolo[4,3-a][1,4]diazepin-6-yl)acetate]
morphology, Acta2 distribution and lipid content of treated cells [1]: closely resembled quiescent (day 1) cells
Ccnd2 and Myc expression [2]: without perturbing
induction of Pdgfrb and Ccnd1 during HSC activation [2]: disrupted induction
growth of pancreatic cancer cell lines in vitro [3]: significantly reduced
BLI and pancreas weight [4, 8]: significantly reduced
number of phospho-H3+ tumor cells, and number of CD45 and DAPI containing cells [4, 8]: significantly reduced
decrease in cell proliferation (phospho-H3+) [4, 9]: about 50%
decrease in leukocyte recruitment (CD45) [4, 9]: about 70%
decrease in luciferase light units (tumor cell count, tumor burden) [4, 9]: about 33%
BET occupancy at the COL1A1 enhancer locus (ChIP) [5]: significantly diminished
PAF1 and CDK9 (elongation cofactors) on chromatin [5]: displaced
occupancy of BETs on chromatin (ChIP-Seq) [5]: dramatically reduces
recruitment of serine 2 phosphorylated form (S2p) of RNA Pol II [5]: specific decrease
sensitivity of BRD4 occupancy on super-enhancer regions to reduction, versus control enhancer regions [5]: more sensitive
serine 5 Pol II phospho-form (S5p) [5]: little change
HSCs transdifferentiation into myofibroblasts, phenotypically (morphology, Acta2 distribution) [6]: dramatically arrested
liver injury due to CCl4 assessed by serum ALT [7]: not significantly impacted

Reference: patent publication US20180325914A1, “INCREASING STORAGE OF VITAMIN A, VITAMIN D AND/OR LIPIDS” (Salk Institute for Biological Studies, priority 2014, published 2018)
